The values below come from patent US20150374709A1, “TETRA-SUBSTITUTED NDGA DERIVATIVES VIA ETHER BONDS AND CARBAMATE BONDS AND THEIR SYNTHESIS AND PHARMACEUTICAL USE” (ERIMOS PHARMACEUTICALS LLC, priority 2006, published 2015).

Structures are written as SMILES.

For assay [1], the system named is TAT-mediated transactivation of HIV transcription (HIV-1 LTR promoter). Description: SEAP assay of TAT-mediated transactivation (antiviral activity). It counts as cell-based, human immunodeficiency virus (HIV). The settings on record: Human immunodeficiency virus 1, COS-7, 48 h, read-out: SEAP EC50. The protocol:
Antiviral activity is determined using a SEAP (SEcreted Alkaline Phosphatase) assay, in which cells are co-transfected with SEAP and TAT plasmids. TAT is a transactivator, human immunodeficiency virus (HIV) gene expression and is one of the two or more necessary viral regulatory factors (TAT and REV) for HIV gene expression. TAT acts iv binding to the TAR RNA element and activating transcription from the long terminal repeat (LTR) promoter. […] Previous studies have shown that TAT mediates reduction of antibody-dependent T cell proliferation, contributing substantially to the failure of the immune response. TAT also directly stimulates Kaposi's cell growth.
Since TAT has no apparent cellular homologs, this strong positive regulator has become an attractive target for the development of anti-AIDS drugs. In contrast to currently available HIV reverse transcriptase inhibitors (AZT, DDI) or potential protease inhibitors that prevent new rounds of infection, an inhibitor which suppresses viral gene TAT regulated expression of integrated proviral DNA will arrest the virus at an early stage (Hsu et al., Science 254:1799-1802, 1991). Efforts aimed at the elucidation of factors which control gene expression at transcriptional and post-transcriptional levels in host eukaryotes have recently made possible quantitative assessment of TAT function (Sim, Ann. N.Y. Acad. Sci. 616: 64-70, 1990). To screen for inhibitors for TAT regulated transactivation (TAT-TRS), the SEAP reporter gene is put under the control of HIV-1 LTR promoter in the plasmid pBC12/HIV/SEAP. The TAT-coded activity is supplied by a second plasmid construct pBC12/CMV/t2. Transient co-transfection of COS-7 cells with these two plasmids leads to secretion of alkaline phosphatase into the culture medium which is analyzed by a simple colorimetric assay (Berger et al., Gene 66: 1-10, 1988). […]
In the SEAP assay, an inhibitor should cause reduction of SEAP reporter gene expression via transactivation of the HIV-1 LTR promoter by TAT protein (TAT-TRS). […] SEAP is detected colorimetrically by the para-nitrophenyl phosphate substrate at 405 nm. […] The cells are analyzed by the MTT assay to compare cytotoxicity to SEAP inhibition. […]
COS-7 (green monkey kidney) cells were co-transfected using Fugene 6 reagent (Roche Applied Science, Cat. No. 11815091001, Indianapolis, Ind., USA) with two plasmids: pHIVSEAP (SEAP expression vector under the control of the HIV LTR promoter) and pCTAT (HIV TAT transcription factor expression vector under the control of a CMV (cytomegalovirus) promoter). After test compound treatment for 48 hours, samples were analyzed for […] at 405 nm after addition of the p-nitrophenyl phosphate substrate. The percentage of SEAP activity inhibition was calculated in relation to the placebo control.

Another assay relates to Renal Cancer cell lines. Briefly: NCI DTP human tumor cell line screen, renal cancer panel. It is filed as cell-based. The settings on record: Renal Cancer (6 cell lines). The text has this: The United States National Cancer Institute (NCI) provides a developmental therapeutics program (DTP) (http://dtp.nci.nih.gov/branches/btb/ivelsp.html) to screen submitted substances in support of cancer drug discovery. The In Vitro Cell Line Screening Project (IVCLSP) is a dedicated service providing direct support to the DTP anticancer drug discovery program and is designed to screen up to 3,000 compounds per year for potential anticancer activity. The operation of this screen utilizes 60 different human tumor cell lines, representing leukemia, melanoma and cancers of the lung, colon, brain, ovary, breast, prostate, and kidney. The aim is to prioritize for farther evaluation, synthetic compounds or natural product samples showing selective growth inhibition or cell killing of particular tumor cell lines. This screen is unique in that the complexity of a 60 cell line dose response produced by a given compound results in a biological response pattern which can be utilized in pattern recognition algorithms (COMPARE program. See: http://dtp.nci.nih.gov/docs/compare/compare.html). Using these algorithms, it is possible to assign a putative mechanism of action to a test compound, or to determine that the response pattern is unique and not similar to that of any of the standard prototype compounds included in the NCI database. […]

As for `C[C@H](Cc1ccc(OCCCN2CCCCC2)c(OCCCN2CCCCC2)c1)[C@@H](C)Cc1ccc(OCCCN2CCCCC2)c(OCCCN2CCCCC2)c1` [Compound A, 1,4-bis{3,4-bis[3-(piperidin-1-yl)propoxy]phenyl}-2,3-dimethyl-(2R,3S)-butane], the EC50 in assay [1] fell in the range of 0.5 to 1 µM. For the same molecule, the “Mean Growth Percent at 10 μM” value with Renal Cancer cell lines is listed as −95.54%.
